Measurements published in PubChem BioAssay (NCI).
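Grown in 96-well plates, cells were treated for 48 hours with each compound at five concentrations. Insufficient inhibition: endpoint recorded as highest concentration tested. TGI: concentration producing complete growth inhibition.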

Columns and labels:
Experiment in all cases: DTP human tumour cell line panel, 48 h
[1] = system: NCI-H23 lung
[2] = system: RXF 393 renal
[3] = system: DU-145 prostate
[4] = system: SF-295 CNS
[5] = system: COLO 205 colon
[6] = system: 786-0 renal
[7] = system: BT-549 breast
[8] = system: HS 578T breast
[9] = system: HT29 colon
[10] = system: CCRF-CEM leukemia
[11] = system: RPMI-8226 leukemia
[12] = system: UACC-62 melanoma
[13] = system: PC-3 prostate
[14] = system: SK-MEL-2 melanoma
[15] = system: EKVX NSCLC
[16] = system: SK-OV-3 ovarian
[17] = system: ACHN renal
[18] = system: U251 CNS
[19] = system: OVCAR-8 ovarian
[20] = system: HL-60(TB) leukemia
[21] = system: SK-MEL-28 melanoma
[22] = system: A549 NSCLC
[23] = system: HOP-92 NSCLC
[24] = system: TK-10 renal
[25] = system: KM12 colon
[26] = system: K-562 leukemia
[27] = system: OVCAR-3 ovarian
[28] = system: NCI-H460 lung
[29] = system: HCC-2998 colon
[30] = system: SF-539 CNS
[31] = system: MDA-N
[32] = system: HCT-15 colon
[33] = system: NCI-H226 lung
[34] = system: SW-620 colon
[35] = system: LOX IMVI melanoma
[36] = system: SR leukemia
[37] = system: M14 melanoma
[38] = system: MCF7 breast
[39] = system: T-47D breast
[40] = system: MDA-MB-435
[41] = system: SF-268 CNS
[42] = system: HCT-116 colon
[43] = system: MDA-MB-231 breast
[44] = system: HOP-62 NSCLC
[45] = system: OVCAR-5 ovarian
[46] = system: MOLT-4 leukemia
[47] = system: A498 renal
[48] = system: SN12C renal
[49] = system: SNB-75 CNS
[50] = system: NCI-H522 lung
[51] = system: IGROV1 ovarian
[52] = system: UACC-257 melanoma
[53] = system: OVCAR-4 ovarian
[54] = system: SK-MEL-5 melanoma
[55] = system: CAKI-1 renal
[56] = system: MALME-3M melanoma
[57] = system: SNB-19 CNS
[58] = system: UO-31 renal

Measured: TGI

CC(C)c1ccc(/C=C2\N=C(c3ccc([N+](=O)[O-])cc3)OC2=O)cc1
not listed: [58]
> 100 µM: all other assays above

CN1CCN(C(=S)N(C(=O)c2ccco2)C2CCCCC2)CC1
not listed: [13] | [15] | [16] | [20] | [30] | [42] | [44] | [46] | [47] | [55]
> 100 µM: all other assays above
